The NIST ThermoML archive (doi:10.1021/je800899w)

Legend:
[1] = xn = mol fraction of the nth substance listed; settings: 298.15 K, 101.3 kPa, Liquid; for viscosity: Capillary tube (Ostwald / Ubbelohde) method
[2] = refractive index (Na D-line) (dimensionless); xn = mol fraction of the nth substance listed; settings: 298.15 K, 101.3 kPa, Liquid, Standard Abbe refractometry
[3] = 298.15 K, 101.33 kPa, Liquid; for viscosity: Capillary tube (Ostwald / Ubbelohde) method; for mass density: Vibrating tube method
[4] = refractive index (Na D-line) (dimensionless); settings: 298.15 K; 101.33 kPa; Liquid; Standard Abbe refractometry

CCOC(C)=O [ethyl acetate] + CCO
Settings	mass density, [1] [kg/m3]	refractive index, [2]	viscosity, [1] [mPa·s]
x1 = 0.0941	800.65	1.36064	0.855
x1 = 0.1919	815.09	1.36193	0.692
x1 = 0.2836	827.27	1.36309	0.619
x1 = 0.4044	841.69	1.36447	0.541
x1 = 0.5014	852.05	1.36548	0.505
x1 = 0.6085	862.53	1.36649	0.467
x1 = 0.6949	870.3	1.36724	0.444
x1 = 0.7929	878.51	1.36811	0.436
x1 = 0.8957	886.6	1.36895	0.424

CCO [ethanol]
Settings	refractive index	viscosity [mPa·s]
[3]	–	1.054
[4]	1.35928	–

CCCCCCCCn1cc[n+](C)c1.O=S(=O)([N-]S(=O)(=O)C(F)(F)F)C(F)(F)F
Settings	mass density [kg/m3]	refractive index	viscosity [mPa·s]
[3]	1320.59	–	92.51
[4]	–	1.43298	–

CCOC(C)=O [ethyl acetate]
Settings	mass density [kg/m3]	refractive index	viscosity [mPa·s]
[3]	894.4	–	0.4256
[4]	–	1.36983	–

CCCCCCCCn1cc[n+](C)c1.O=S(=O)([N-]S(=O)(=O)C(F)(F)F)C(F)(F)F + CCO
Settings	mass density, [1] [kg/m3]	refractive index, [2]	viscosity, [1] [mPa·s]
x2 = 0.0959	1311.29	1.43164	71.28
x2 = 0.1162	1309.17	1.43133	67.63
x2 = 0.1935	1300.29	1.43016	55.53
x2 = 0.2269	1296.02	1.42965	51.54
x2 = 0.3304	1280.78	1.42766	39.23
x2 = 0.4164	1265.19	1.42549	29.89
x2 = 0.5412	1235.17	1.42143	19.92
x2 = 0.6012	1216.21	1.41886	15.86
x2 = 0.7033	1173.46	1.41319	10.25
x2 = 0.8067	1106.85	1.40447	5.83
x2 = 0.8967	1010.5	1.39142	3.079

CCCCCCCCn1cc[n+](C)c1.O=S(=O)([N-]S(=O)(=O)C(F)(F)F)C(F)(F)F + CCOC(C)=O
Settings	mass density, [1] [kg/m3]	refractive index, [2]	viscosity, [1] [mPa·s]
x2 = 0.0493	1314.93	1.43216	78.89
x2 = 0.1112	1307.34	1.43115	65.93
x2 = 0.1546	1301.55	1.43042	58.25
x2 = 0.2125	1293.1	1.4293	48.82
x2 = 0.3102	1276.6	1.42726	34.78
x2 = 0.404	1257.53	1.42453	24.15
x2 = 0.4779	1239.88	1.42219	17.54
x2 = 0.5967	1203.86	1.41721	9.795
x2 = 0.7035	1160.22	1.41123	5.384
x2 = 0.8233	1089.62	1.40097	2.284
x2 = 0.9016	1022.64	1.391	1.233
